Tests used:
[1] = target: T1, human MrgprX1 (Homo sapiens, UniProt Q96LB2); assay: MrgprX1 positive allosteric modulator (PAM) calcium FLIPR assay in HEK293 cells; format: cell-based; details: PAM activity in presence of EC20 concentration of BAM8-22; HEK293 cells stably transfected with human MrgprX1
T1 construct: expressed in transfected cells
Protocol: HEK293 cells stably transfected with human MrgprX1 were plated onto poly-D-lysine-coated, black-walled, 96-well plates at a seeding density of 12,000 cells/well and grown for two days. On the day of the experiment, cells were incubated with Fluo-4 AM 2 μM, pluronic acid 0.04% and Trypan Red 1% in HBSS (pH 7.4, 100 μL) for 1 h at 37° C. For each different passage of cells, a BAM8-22 dose response was first conducted and the BAM8-22 EC20 determined. Test compounds were then dissolved and serially diluted in DMSO, further diluted with Trypan Red (1%)-containing HBSS (50 μL) and added to cells (0.33% DMSO concentration by volume) to first monitor for agonist activity. After 2.5 min, BAM8-22 at 4-fold EC20 (50 μL) was added to cells (0.25% DMSO concentration by volume) and the cells imaged on the FLIPR for an additional 2 minutes to monitor the test compounds for PAM activity. Finally, data were normalized to fluorescence signals obtained from 250 nM of BAM8-22 (maximum) and BAM8-22 at its EC20 concentration (minimum). EC50 of a test compound was defined as the concentration required to provoke a response halfway between the minimum and maximum response in the presence of EC20 concentration of BAM8-22.

T1 sequence (Q96LB2 whole entry): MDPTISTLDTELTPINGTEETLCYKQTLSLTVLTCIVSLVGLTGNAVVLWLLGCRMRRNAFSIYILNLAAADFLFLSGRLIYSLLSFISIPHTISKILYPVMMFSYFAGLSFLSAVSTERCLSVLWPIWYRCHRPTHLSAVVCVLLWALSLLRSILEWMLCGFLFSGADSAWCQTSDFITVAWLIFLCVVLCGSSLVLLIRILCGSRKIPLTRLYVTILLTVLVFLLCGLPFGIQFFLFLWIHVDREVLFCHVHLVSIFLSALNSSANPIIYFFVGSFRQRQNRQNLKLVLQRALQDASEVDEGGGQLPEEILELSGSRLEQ

Row | SMILES | EC50 [1] [nM] | melting point [°C]
1 | CC(C)(C)c1sc2ncnc(Oc3cccnc3OC(F)(F)F)c2c1-c1ccc(Cl)c(Cl)c1 [Compound 7h, 6-tert-butyl-5-(3,4-dichlorophenyl)-4-(2-(trifluoromethoxy)pyridin-3-yloxy)thieno[2,3-d]pyrimidine] | 4000 | 117
2 | CC(C)(C)c1sc2ncnc(OC3CCC3)c2c1-c1ccc(Cl)c(Cl)c1 [Compound 7y, 6-tert-butyl-4-cyclobutoxy-5-(3,4-dichlorophenyl)thieno[2,3-d]pyrimidine] | 7000 | 146
3 | CC(C)(C)c1sc2ncnc(Oc3c(F)cccc3F)c2c1-c1ccc(F)c(F)c1 [Compound 7ak, 6-tert-butyl-4-(2,6-difluorophenoxy)-5-(3,4-difluorophenyl)thieno[2,3-d]pyrimidine] | 70 | 185
4 | CC(C)(C)c1sc2ncnc(OC3CCCC3)c2c1-c1ccc(Cl)c(Cl)c1 [Compound 7z, 6-tert-butyl-4-(cyclopentyloxy)-5-(3,4-dichlorophenyl)thieno[2,3-d]pyrimidine] | 6000 | 112
5 | Cc1nc(Oc2ccccc2)c2ccsc2n1 [Compound 7ay, 2-methyl-4-phenoxythieno[2,3-d]pyrimidine] | 6000 | 100
6 | CC(C)(C)c1sc2ncnc(Oc3c(F)cccc3F)c2c1-c1ccc(F)cc1 [Compound 7at, 6-tert-butyl-4-(2,6-difluorophenoxy)-5-(4-fluorophenyl)thieno[2,3-d]pyrimidine] | 70 | 186
7 | CC(C)(C)c1sc2ncnc(OC3CCCCC3F)c2c1-c1ccc(Cl)c(Cl)c1 (stereo not drawn) [Compound 7ag, 6-tert-butyl-5-(3,4-dichlorophenyl)-4-(2-fluorocyclohexyloxy)thieno[2,3-d]pyrimidine] | 100 | 144
8 | CC(C)(C)c1sc2ncnc(Oc3ccnnc3)c2c1-c1ccc(Cl)c(Cl)c1 [Compound 7k, 6-tert-butyl-5-(3,4-dichlorophenyl)-4-(pyridazin-4-yloxy)thieno[2,3-d]pyrimidine] | > 100000 | 186
9 | CC(C)(C)c1sc2ncnc(Oc3ccccc3OC(F)(F)F)c2c1-c1cccc(F)c1 [Compound 7av, 6-tert-butyl-5-(3-fluorophenyl)-4-(2-(trifluoromethoxy)phenoxy)thieno[2,3-d]pyrimidine] | 100 | 150
10 | CC(C)(C)c1sc2ncnc(Oc3ccccc3OC(F)(F)F)c2c1-c1cccc(Cl)c1 [Compound 7aq, 6-tert-butyl-5-(3-chlorophenyl)-4-(2-(trifluoromethoxy)phenoxy)thieno[2,3-d]pyrimidine] | 100 | 129
11 | COc1ccccc1Oc1ncnc2sc(C(C)(C)C)c(-c3ccc(Cl)c(Cl)c3)c12 [Compound 7q, 6-tert-butyl-5-(3,4-dichlorophenyl)-4-(2-methoxyphenoxy)thieno[2,3-d]pyrimidine] | 700 | 136
12 | CC(C)(C)c1sc2ncnc(Oc3cccc(F)c3)c2c1-c1ccc(Cl)c(Cl)c1 [Compound 7o, 6-tert-butyl-5-(3,4-dichlorophenyl)-4-(3-fluorophenoxy)thieno[2,3-d]pyrimidine] | > 100000 | 144
13 | CC(C)(C)c1sc2ncnc(Oc3ccccc3OC(F)(F)F)c2c1-c1ccc(F)c(F)c1 [Compound 7am, 6-tert-butyl-5-(3,4-difluorophenyl)-4-(2-(trifluoromethoxy)phenoxy)thieno[2,3-d]pyrimidine] | 70 | 146
14 | CC(C)(C)c1sc2ncnc(Oc3c(F)cccc3OC(F)(F)F)c2c1N1CCCCC1 [Compound 7bh, 6-(tert-butyl)-4-(2-fluoro-6-(trifluoromethoxy)phenoxy)-5-(piperidin-1-yl)thieno[2,3-d]pyrimidine] | 40 | 133
15 | CC(C)(C)c1sc2ncnc(OC3CCCCC3)c2c1-c1ccc(Cl)c(Cl)c1 [Compound 7aa, 6-tert-butyl-4-(cyclohexyloxy)-5-(3,4-dichlorophenyl)thieno[2,3-d]pyrimidine] | 100 | 121
16 | CC(C)(C)c1sc2ncnc(Oc3c(F)cccc3F)c2c1N1CCOCC1 [Compound 7bi, 4-(6-(tert-butyl)-4-(2,6-difluorophenoxy)thieno[2,3-d]pyrimidin-5-yl)morpholine] | 40 | 173

Continued, values first:

Row | EC50 [1] [nM] | melting point [°C] | SMILES
17 | > 10000 | 142 | CC(C)(C)c1sc2ncnc(OC3(C(F)(F)F)CCCCC3)c2c1-c1ccc(Cl)c(Cl)c1 [Compound 7ai, 6-tert-butyl-5-(3,4-dichlorophenyl)-4-(1-(trifluoromethyl)cyclohexyloxy)thieno[2,3-d]pyrimidine]
18 | 2000 | 179 | CC(C)(C)c1sc2ncnc(Oc3ccc(F)cc3)c2c1-c1ccc(Cl)c(Cl)c1 [Compound 7p, 6-tert-butyl-5-(3,4-dichlorophenyl)-4-(4-fluorophenoxy)thieno[2,3-d]pyrimidine]
19 | 300 | 128 | CC(C)(C)c1sc2ncnc(OC3CCCCC3(C)C)c2c1-c1ccc(Cl)c(Cl)c1 (stereo not drawn) [Compound 7ah, 6-tert-butyl-5-(3,4-dichlorophenyl)-4-(2,2-dimethylcyclohexyloxy)thieno[2,3-d]pyrimidine]
20 | 300 | 152 | CC(C)(C)c1sc2ncnc(OC3CC4CCC3C4)c2c1-c1ccc(Cl)c(Cl)c1 (stereo not drawn) [Compound 7ad, 4-(bicyclo[2.2.1]heptan-2-yloxy)-6-tert-butyl-5-(3,4-dichlorophenyl)thieno[2,3-d]pyrimidine]
21 | 1000 | 136 | CC(C)(C)c1sc2ncnc(Oc3ccccc3OCC(F)(F)F)c2c1-c1ccc(Cl)c(Cl)c1 [Compound 7s, 6-tert-butyl-5-(3,4-dichlorophenyl)-4-(2-(2,2,2-trifluoroethoxy)phenoxy)thieno[2,3-d]pyrimidine]
22 | 70 | 72 | CCN(CC)c1c(C(C)(C)C)sc2ncnc(Oc3c(F)cccc3OC(F)(F)F)c12 [Compound 7bj, 6-(tert-butyl)-N,N-diethyl-4-(2-fluoro-6-(trifluoromethoxy)phenoxy)thieno[2,3-d]pyrimidin-5-amine]
23 | 30 | 115 | CC(C)(C)c1sc2ncnc(Oc3c(F)cccc3OC(F)(F)F)c2c1N1CCCC1 [Compound 7bf, 6-(tert-butyl)-4-(2-fluoro-6-(trifluoromethoxy)phenoxy)-5-(pyrrolidin-1-yl)thieno[2,3-d]pyrimidine]
24 | 100 | 139 | CC(C)(C)c1sc2ncnc(OC3CCCCC3C(F)(F)F)c2c1-c1ccc(Cl)c(Cl)c1 (stereo not drawn) [Compound 7af, 6-tert-butyl-5-(3,4-dichlorophenyl)-4-(2-(trifluoromethyl)cyclohexyloxy)thieno[2,3-d]pyrimidine]
25 | > 10000 | 121 | CC(C)(C)c1sc2ncnc(Oc3cccc(OC(F)(F)F)c3)c2c1-c1ccc(Cl)c(Cl)c1 [Compound 7d, 6-tert-butyl-5-(3,4-dichlorophenyl)-4-(3-(trifluoromethoxy)phenoxy)thieno[2,3-d]pyrimidine]
26 | 1000 | 164 | CC(C)(C)c1sc2ncnc(Oc3cccnc3F)c2c1-c1ccc(Cl)c(Cl)c1 [Compound 7g, 6-tert-butyl-5-(3,4-dichlorophenyl)-4-(2-fluoropyridin-3-yloxy)thieno[2,3-d]pyrimidine]
27 | 1000 | 119 | CCOc1ccccc1Oc1ncnc2sc(C(C)(C)C)c(-c3ccc(Cl)c(Cl)c3)c12 [Compound 7r, 6-tert-butyl-5-(3,4-dichlorophenyl)-4-(2-ethoxyphenoxy)thieno[2,3-d]pyrimidine]
28 | 50 | 146 | CC(C)(C)c1sc2ncnc(Oc3c(F)cccc3F)c2c1-c1cccc(Cl)c1 [Compound 7as, 6-tert-butyl-5-(3-chlorophenyl)-4-(2,6-difluorophenoxy)thieno[2,3-d]pyrimidine]
29 | 100 | 163 | CC(C)(C)c1sc2ncnc(Oc3ccccc3F)c2c1-c1ccc(Cl)c(Cl)c1 [Compound 7m, 6-tert-butyl-5-(3,4-dichlorophenyl)-4-(2-fluorophenoxy)thieno[2,3-d]pyrimidine]
30 | 400 | 151 | Cc1ccccc1Oc1ncnc2sc(C(C)(C)C)c(-c3ccc(Cl)c(Cl)c3)c12 [Compound 7t, 6-tert-butyl-5-(3,4-dichlorophenyl)-4-(o-tolyloxy)thieno[2,3-d]pyrimidine]
